# Reference: patent US10543212B2, “Substituted amines for treating cardiac diseases” (Cardurion Pharmaceuticals, LLC, priority 2017, dated 2020)
# Target: T1, Full-length, GST-tagged, human CaMKIIδ (Homo sapiens, UniProt Q13557)
# T1 construct: Full-Length, Glutathione-S-Transferase(GST)-Tagged, Human CaMKIIδ was purchased from Carna Biosciences; purchased Carna Biosciences 02-111
# Assay: CaMKIIδ binding assay (TR-FRET with BODIPY-labeled probe ligand)
# Conditions: CaMKIIδ binding assay, results of Table 2
# Procedure, shortened: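 TR-FRET probe-displacement binding: 0.5 nM GST-CaMKIIδ with 10 μg/mL calmodulin, 1 mM CaCl2, 0.21 nM Tb-anti-GST Ab and 300 nM BODIPY probe in HEPES pH 7.6 buffer. Eight-point 4-fold dilutions, 1 hr at room temperature. IC50 from logistic fit; 100% inhibition defined by 3 μM parent compound.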
# T1 sequence (Q13557 1-478 isoform Q13557-12): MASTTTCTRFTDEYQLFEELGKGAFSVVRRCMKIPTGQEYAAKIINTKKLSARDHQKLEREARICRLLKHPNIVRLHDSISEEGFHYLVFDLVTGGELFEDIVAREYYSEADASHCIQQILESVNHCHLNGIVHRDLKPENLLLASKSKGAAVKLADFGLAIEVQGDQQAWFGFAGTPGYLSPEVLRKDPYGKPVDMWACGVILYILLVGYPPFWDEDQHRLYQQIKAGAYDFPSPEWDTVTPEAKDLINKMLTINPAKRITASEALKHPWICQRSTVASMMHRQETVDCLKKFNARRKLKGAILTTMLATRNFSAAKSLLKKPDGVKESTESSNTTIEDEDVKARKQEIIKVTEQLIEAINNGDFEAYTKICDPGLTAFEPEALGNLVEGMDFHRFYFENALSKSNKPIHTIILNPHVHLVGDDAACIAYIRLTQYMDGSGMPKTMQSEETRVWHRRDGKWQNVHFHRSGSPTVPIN
row,Structure (SMILES),IC50 [µM]
1,"C[C@@H](Cn1cnnn1)Oc1cc(-c2cnc(Nc3ccc4c(c3)CCN4C(=O)OC(C)(C)C)nc2)ccc1Cl [Example 450, tert-butyl (S)-5-((5-(3-((1-(1H-tetrazol-1-yl)propan-2-yl)oxy)-4-chlorophenyl)pyrimidin-2-yl)amino)indoline-1-carboxylate]",≥ 0.1
2,"COc1cc(C2CCCN(C3COC3)C2)ccc1Nc1ncc(-c2ccc(Cl)c(O[C@@H](C)Cn3cnnn3)c2)cn1 (stereo partly drawn) [Example 494, 5-(3-(((S)-1-(1H-tetrazol-1-yl)propan-2-yl)oxy)-4-chlorophenyl)-N-(2-methoxy-4-(1-(oxetan-3-yl)piperidin-3-yl)phenyl)pyrimidin-2-amine]",< 0.01
3,"COc1cc2c(cc1Nc1ncc(-c3ccc(Cl)c(O[C@@H](C)Cn4cnnn4)c3)cn1)CN(CCO)CC2 [Example 511, (S)-2-(7-((5-(3-((1-(1H-tetrazol-1-yl)propan-2-yl)oxy)-4-chlorophenyl)pyrimidin-2-yl)amino)-6-methoxy-3,4-dihydroisoquinolin-2(1H)-yl)ethan-1-ol]",< 0.01
4,"C[C@@H](Cn1cnnn1)Oc1cc(-c2cnc(Nc3cn(C4CCN(C5CCN(C)CC5)CC4)nc3C(F)(F)F)nc2)ccc1Cl [Example 559, (S)-5-(3-((1-(1H-tetrazol-1-yl)propan-2-yl)oxy)-4-chlorophenyl)-N-(1-(1'-methyl-[1,4'-bipiperidin]-4-yl)-3-(trifluoromethyl)-1H-pyrazol-4-yl)pyrimidin-2-amine]",< 0.01

# Same assay, conditions: CaMKIIδ binding assay; activity class per Table 2
row,Structure (SMILES),IC50 [µM]
1,"C[C@@H](Cn1cnnn1)Oc1cc(-c2cnc(Nc3cn(C[C@]4(O)CC[C@H](O)CC4)nc3OCC(F)(F)F)nc2)ccc1Cl [Example 906, trans-1-((4-((5-(3-(((S)-1-(1H-tetrazol-1-yl)propan-2-yl)oxy)-4-chlorophenyl)pyrimidin-2-yl)amino)-3-(2,2,2-trifluoroethoxy)-1H-pyrazol-1-yl)methyl)cyclohexane-1,4-diol]",< 0.01
2,"CCC(=O)c1nn(C2CC3(C2)CN(C2CCOCC2)C3)cc1Nc1ncc(-c2ccc(Cl)c(O[C@@H](C)Cn3cnnn3)c2)cn1 [Example 958, (S)-1-(4-((5-(3-((1-(1H-tetrazol-1-yl)propan-2-yl)oxy)-4-chlorophenyl)pyrimidin-2-yl)amino)-1-(2-(tetrahydro-2H-pyran-4-yl)-2-azaspiro[3.3]heptan-6-yl)-1H-pyrazol-3-yl)propan-1-one]",< 0.01
3,"C[C@@H](Cn1cnnn1)Oc1cc(-c2cnc(Nc3cn(C(C)(C)CO)nc3OCC(F)(F)F)nc2)ccc1Cl [Example 883, (S)-2-(4-((5-(3-((1-(1H-tetrazol-1-yl)propan-2-yl)oxy)-4-chlorophenyl)pyrimidin-2-yl)amino)-3-(2,2,2-trifluoroethoxy)-1H-pyrazol-1-yl)-2-methylpropan-1-ol]",< 0.01

# Same assay, conditions: Table 2; CaMKIIδ binding assay, activity given as class A/B/C
row,Structure (SMILES),IC50 [µM]
1,"C[C@@H](Cn1cnnn1)Oc1cc(-c2cnc(Nc3snnc3-c3ccc(Cl)cc3)nc2)ccc1Cl [Example 748, (S)-N-(5-(3-((1-(1H-tetrazol-1-yl)propan-2-yl)oxy)-4-chlorophenyl)pyrimidin-2-yl)-4-(4-chlorophenyl)-1,2,3-thiadiazol-5-amine]",≥ 0.1
2,"C[C@@H](Cn1cnnn1)Oc1cc(-c2cnc(Nc3cc(N4CC(CN5CCOCC5)C4)ccc3F)nc2)ccc1C#N [Example 762, (S)-2-((1-(1H-tetrazol-1-yl)propan-2-yl)oxy)-4-(2-((2-fluoro-5-(3-(morpholinomethyl)azetidin-1-yl)phenyl)amino)pyrimidin-5-yl)benzonitrile]",< 0.01
3,"C[C@@H](Cn1cnnn1)Oc1cc(-c2cnc(Nc3cn([C@H]4CC[C@@H](N5CCOCC5)CC4)nc3OCC(F)F)nc2)ccc1F [Example 834, 5-(3-(((S)-1-(1H-tetrazol-1-yl)propan-2-yl)oxy)-4-fluorophenyl)-N-(3-(2,2-difluoroethoxy)-1-(cis-4-morpholinocyclohexyl)-1H-pyrazol-4-yl)pyrimidin-2-amine]",0.01 to 0.1
4,"C[C@@H](Cn1cnnn1)Oc1cc(-c2cnc(Nc3cn([C@H]4CC[C@@H](N5CCOCC5)CC4)nc3C(F)(F)F)nc2)ccc1F [Example 807, 5-(3-(((S)-1-(1H-tetrazol-1-yl)propan-2-yl)oxy)-4-fluorophenyl)-N-(1-(cis-4-morpholinocyclohexyl)-3-(trifluoromethyl)-1H-pyrazol-4-yl)pyrimidin-2-amine]",0.01 to 0.1

# Same assay, conditions: Table 2; activity class for CaMKIIδ
row,Structure (SMILES),IC50 [µM]
1,"C[C@@H](Cn1cnnn1)Oc1cc(-c2cnc(Nc3cn(CC4CNC4)nc3C(F)(F)F)nc2)ccc1Cl [Example 597, (S)-5-(3-((1-(1H-tetrazol-1-yl)propan-2-yl)oxy)-4-chlorophenyl)-N-(1-(azetidin-3-ylmethyl)-3-(trifluoromethyl)-1H-pyrazol-4-yl)pyrimidin-2-amine]",< 0.01
2,"C[C@@H](Cn1cnnn1)Oc1cc(-c2cnc(Nc3cn([C@@H]4C[C@H]5CC[C@@H](C4)N5C4CCOCC4)nc3C(F)(F)F)nc2)ccc1Cl [Example 703, 5-(3-(((S)-1-(1H-tetrazol-1-yl)propan-2-yl)oxy)-4-chlorophenyl)-N-(1-((1R,3s,5S)-8-(tetrahydro-2H-pyran-4-yl)-8-azabicyclo[3.2.1]octan-3-yl)-3-(trifluoromethyl)-1H-pyrazol-4-yl)pyrimidin-2-amine]",< 0.01
3,"C[C@@H](Cn1cnnn1)Oc1cc(-c2cnc(Nc3ccn(Cc4ccccc4)n3)nc2)ccc1Cl [Example 714, (S)-5-(3-((1-(1H-tetrazol-1-yl)propan-2-yl)oxy)-4-chlorophenyl)-N-(1-benzyl-1H-pyrazol-3-yl)pyrimidin-2-amine]",0.01 to 0.1
4,"COc1cc(N2CCN(CC3COC3)CC2)cnc1Nc1ncc(-c2ccc(Cl)c(O[C@@H](C)Cn3cnnn3)c2)cn1 [Example 648, (S)-5-(3-((1-(1H-tetrazol-1-yl)propan-2-yl)oxy)-4-chlorophenyl)-N-(3-methoxy-5-(4-(oxetan-3-ylmethyl)piperazin-1-yl)pyridin-2-yl)pyrimidin-2-amine]",0.01 to 0.1
5,"C[C@@H](Cn1cnnn1)Oc1cc(-c2cnc(Nc3cn(C4CCC(=O)CC4)nc3C(F)(F)F)nc2)ccc1Cl [Example 680, (S)-4-(4-((5-(3-((1-(1H-tetrazol-1-yl)propan-2-yl)oxy)-4-chlorophenyl)pyrimidin-2-yl)amino)-3-(trifluoromethyl)-1H-pyrazol-1-yl)cyclohexan-1-one]",0.01 to 0.1
6,"COc1cc(N2CCN3CCOCC3C2)ccc1Nc1ncc(-c2ccc(Cl)c(O[C@@H](C)Cn3cnnn3)c2)cn1 (stereo partly drawn) [Example 673, 5-(3-(((S)-1-(1H-tetrazol-1-yl)propan-2-yl)oxy)-4-chlorophenyl)-N-(4-(hexahydropyrazino[2,1-c][1,4]oxazin-8(1H)-yl)-2-methoxyphenyl)pyrimidin-2-amine]",< 0.01
7,"C[C@@H](Cn1cnnn1)Oc1cc(-c2cnc(Nc3cn(CC4CCCN(C)C4)nc3C(F)(F)F)nc2)ccc1Cl (stereo partly drawn) [Example 635, 5-(3-(((S)-1-(1H-tetrazol-1-yl)propan-2-yl)oxy)-4-chlorophenyl)-N-(1-((1-methylpiperidin-3-yl)methyl)-3-(trifluoromethyl)-1H-pyrazol-4-yl)pyrimidin-2-amine]",0.01 to 0.1
8,"COc1nc(N2CCN(C3CCC(F)(F)CC3)CC2)ccc1Nc1ncc(-c2ccc(Cl)c(O[C@@H](C)Cn3cnnn3)c2)cn1 [Example 636, (S)-5-(3-((1-(1H-tetrazol-1-yl)propan-2-yl)oxy)-4-chlorophenyl)-N-(6-(4-(4,4-difluorocyclohexyl)piperazin-1-yl)-2-methoxypyridin-3-yl)pyrimidin-2-amine]",0.01 to 0.1
